Source: patent US4169157A, “Therapeutic preparations for peptic ulcers comprising aliphatic ketone derivative” (Eisai Co., Ltd., priority 1977, dated 1979)
“Also recorded” adds a separate entry of the source.

Experiments:
[1] = tested on: indomethacin ulcer; assay: Effect on Indomethacin ulcer; assay type: in vivo, SD strain female rats; settings: for inhibition in vivo at 100 mg/kg: 4 h, read-out: Inhibition rate on the development of indomethacin ulcer
Procedure: The inhibitory effects of the test compounds on the development of the ulcer due to the administration of indomethacin were estimated using SD strain female rats weighing about 200 g as the test animals.
The methods for administration and estimation of the effect of the test compounds are carried out according to the procedure in pharmacological experiment 2.
The dose of the test compound amounted to 100 mg/kg. The indomethacin was orally administered in the dose of 20 mg/kg. The effect was estimated four hours after the administration of indomethacin.

[2] = tested on: histamine ulcer; assay: Effect on the Histamine ulcer; assay type: in vivo, SD strain male rats; settings: 100 mg/kg oral; for inhibition in vivo at 100 mg/kg: read-out: Inhibition rate to the development of the histamine ulcer
Procedure: According to the Okabe et al. method [[…] 26 (1) 89-93 (1975)], the inhibitory effects of the test compounds on the development of ulcer due to the administration of histamine were estimated using SD strain male rats weighing about 350 g as the test animals.
The methods for administration and estimation of the effect of the test compounds are carried out according to the procedure in pharmacological experiment 1.
A dose of the test compounds amounted to 100 mg/kg.
The histamine was administered intraperitoneally to the test animal in an amount of 200 mg/kg as the hydrochloride.
The effect was estimated 4 hours after the administration of the histamine.

[3] = tested on: cold and restraint stress ulcer; assay: Effect on the cold and restraint stress ulcer; assay type: in vivo, SD strain female rats; settings: 200 mg/kg oral; for Inhibition rate to the development of the ulcer (in words): compared with control compound A (Gefarnate); for inhibition in vivo at 200 mg/kg: 2 h, read-out: Inhibition rate to the development of the cold and restraint stress ulcer
Procedure: Preventive effect of the test compounds on the development of the cold and restraint stress ulcer was estimated according to Levine's method [Proc. Soc. Exptl. Biol. Med., 124, 1221 (1967)], using SD strain female rats weighing about 170 g, and being 8-10 weeks old, as test animals.
All test compounds were suspended in 5% gum arabic solution and one drop of Tween 80, and the suspension was orally administered to rat. A dose amounted to 200 mg/kg, and the volume of the administrative dose was controlled to 0.5 ml/100 g B. W. As a blank test, 5% gum arabic solution was administered.
The administration of the test compounds and the blank test were carried out 30 minutes before adopting the cold and restraint stress.
The effect of the test compounds was estimated by finding the value (ulcer index) of the total length of the erosion observed in the glandular portion of the test animals two hours after the cold and restraint stress, and calculating the effect of the administration of said compounds as the inhibition rate of the development of the ulcer from the value. [formula]

[4] = tested on: peptic ulcers; assay: Therapeutic effect on peptic ulcers (overall result of the pharmacological experiments); assay type: in vivo, SD strain rats; settings: from the results of the above-described pharmacological experiments
[5] = tested on: subacute aspirin ulcer; assay: Effect on subacute aspirin ulcer; assay type: in vivo, SD strain male rats; settings: for inhibition in vivo at 200 mg/kg: 144 h, read-out: Inhibition rate to the development of the subacute aspirin ulcer; for Inhibitory effect on subacute aspirin ulcer (in words): 200 mg/kg/day for five days
Procedure: Aspirin in amount of 200 mg/kg/day was orally administered to SD strain male rats (body weight of about 250 g, nine weeks old) after abstinence from the food for 24 hours. The rats were fed for one hour, after one hour from said administration, and again abstained from the food. The administration of aspirin was continued for five days in the same schedule as mentioned above. The effect was estimated on the sixth day.
All the test compounds were emulsified with 5% gum arabic solution and one drop of Tween 80. The emulsions were administered continuously for five days, together with aspirin to rat. The dose amounted to 200 mg/kg/day, and the volume of the dose was controlled to 0.5 ml/100 g B. W. The blank test was similarly effected as pharmacological experiment 1.
The effect of the test compound was estimated by finding the value (ulcer index) of the total lengths of erosions developed in the glandular portion of the test animal with respect to the test compounds group and the blank test group, respectively, and calculating from said value the effect of the administration of the test compounds as the inhibition rate.

[6] = histamine 200 mg/kg intraperitoneally, 4 hours after histamine, rat
[7] = 30 minutes before stress, ulcer index two hours after stress, rat
[8] = 200 mg/kg/day for five days together with aspirin 200 mg/kg/day oral, estimated on sixth day, rat
[9] = indomethacin 20 mg/kg oral, four hours after indomethacin, rat

Compound	Inhibition rate on the development of indomethacin ulcer ([1]; 100 mg/kg, indomethacin 20 mg/kg oral, four hours after indomethacin, rat)	Effect on the histamine ulcer of rat (in words) [2]	Inhibition rate to the development of the histamine ulcer [2, 6]	Inhibition rate to the development of the cold and restraint stress ulcer [3, 7]	Inhibition rate to the development of the ulcer (in words) [3]	Therapeutic effect on the peptic ulcers (in words) [4]	Inhibition rate to the development of the subacute aspirin ulcer [5, 8]	inhibition in vivo at 100 mg/kg [1, 9]	inhibition in vivo at 100 mg/kg [2, 6]	inhibition in vivo at 200 mg/kg [3, 7]	inhibition in vivo at 200 mg/kg [5, 8]	Inhibitory effect on the development of the indomethacin ulcer (in words) ([1]; 100 mg/kg)	Inhibitory effect on subacute aspirin ulcer (in words) [5]
6,10,14-trimethyl-5,9,13-octadecatriene-2-on [subject compound A]	75.4%	more inhibitory effect than that of the control compound	50.4%	71.4%	higher than that of the control compound A	high therapeutic effect on the peptic ulcers	56.7%						
CC(C)=CCCC(C)=CCCC(C)=CCCC(=O)OCC=C(C)CCC=C(C)C [control compound A, reference compound]		no appreciable effect						45%	15.4%	47.2%	21%		
CC(=O)CCC=C(C)CCC=C(C)CCC=C(C)CCC=C(C)C [subject compound B, 6,10,14,18-tetramethyl-5,9,13,17-nonadecatetraene-2-on]		more inhibitory effect than that of the control compound			higher than that of the control compound A; also recorded: particularly the most effective compound	high therapeutic effect on the peptic ulcers		91.3%	53.8%	75.7%	73.2%	Particularly high inhibitory effect	Inhibitory effect was shown
CC(C)=CCCC(C)=CCCC(C)=CCCC(C)=CCCC(=O)C(C)C [subject compound C, 2,7,11,15,19-pentamethyl-6,10,14,18-eicosatetraene-3-on]					higher than that of the control compound A	high therapeutic effect on the peptic ulcers		86.7%	44.7%	67.1%	50.9%	Particularly high inhibitory effect	
CC(=O)CCC=C(C)CCCC(C)CCCC(C)CCCC(C)C (stereo not shown) [subject compound D, 6,10,14,18-tetramethyl-5-nonadecaene-2-on]					higher than that of the control compound A	high therapeutic effect on the peptic ulcers		75.5%	35.2%	72%	61.8%		Inhibitory effect was shown
CC(=O)CCCC(C)CCCC(C)CCCC(C)CCCC(C)C (stereo not shown) [subject compound E, 6,10,14,18-tetramethyl-nonadecane-2-on]					higher than that of the control compound A	high therapeutic effect on the peptic ulcers		71.1%	22.4%	67.8%	48.5%		
CCCC(=O)CCC=C(C)CCC=C(C)CCC=C(C)CCC=C(C)C [subject compound F, 8,12,16,20-tetramethyl-7,11,15,19-heneicosatetraene-4-on]		more inhibitory effect than that of the control compound			higher than that of the control compound A	high therapeutic effect on the peptic ulcers		88.5%	49%	69.5%	52.7%	Particularly high inhibitory effect	
CC(=O)C(CC=C(C)CCC=C(C)CCC=C(C)CCC=C(C)C)C(C)=O [subject compound G, 3-acetyl-6,10,14,18-tetramethyl-5,9,13,17-nonadecatetraene-2-on]					higher than that of the control compound A	high therapeutic effect on the peptic ulcers		64.9%	40.8%	70.5%	64.5%		
